Laboratory results: BindingDB's records for doi:10.1021/jm00039a015 (Abbott Laboratories, 1994)
Where a name gives a salt, the structure may show the parent alone.

Target: Platelet-activating factor receptor (Oryctolagus cuniculus)
Assay: Antagonist activity against platelet activating factor (PAF) receptor in rabbit platelet membranes using [3H]C18-PAF as radioligand

Row | SMILES | Ki [nM]
1 | O=C(c1cn(C(=O)N2CCOCC2)c2cc(OCc3ccccc3)ccc12)[C@@H]1CSC(c2cccnc2)N1 (stereo partly drawn) [[6-Benzyloxy-3-((R)-2-pyridin-3-yl-thiazolidine-4-carbonyl)-indol-1-yl]-morpholin-4-yl-methanone] | 10
2 | O=C([C@@H]1CSC(c2cccnc2)N1)n1ccc2cccc(OCc3ccccc3)c21 (stereo partly drawn) [(7-Benzyloxy-indol-1-yl)-((R)-2-pyridin-3-yl-thiazolidin-4-yl)-methanone; compound with oxalic acid] | 385
3 | Cc1cccc2c(C(=O)[C@@H]3CSC(c4cccnc4)N3)c[nH]c12 (stereo partly drawn) [(7-Methyl-1H-indol-3-yl)-((R)-2-pyridin-3-yl-thiazolidin-4-yl)-methanone] | 6.5
4 | Cc1c(C(=O)[C@@H]2CSC(c3cccnc3)N2)c2ccccc2n1C(=O)N1CCOCC1 (stereo partly drawn) [[2-Methyl-3-((R)-2-pyridin-3-yl-thiazolidine-4-carbonyl)-indol-1-yl]-morpholin-4-yl-methanone] | 88
5 | Cc1ccc2c(c1)c(C(=O)[C@@H]1CSC(c3cccnc3)N1)c(C)n2C(=O)OC(C)(C)C (stereo partly drawn) [2,5-Dimethyl-3-((R)-2-pyridin-3-yl-thiazolidine-4-carbonyl)-indole-1-carboxylic acid tert-butyl ester; compound with oxalic acid] | 77
6 | COc1ccc2c(C(=O)[C@@H]3CSC(c4cccnc4)N3)cn(C(=O)OC(C)(C)C)c2c1 (stereo partly drawn) [6-Methoxy-3-((R)-2-pyridin-3-yl-thiazolidine-4-carbonyl)-indole-1-carboxylic acid tert-butyl ester; compound with oxalic acid] | 8.2
7 | O=C(c1c[nH]c2ccccc12)[C@@H]1CSC(c2cccnc2)N1 (stereo partly drawn) [(1H-Indol-3-yl)-((R)-2-pyridin-3-yl-thiazolidin-4-yl)-methanone; compound with oxalic acid] | 3.4
8 | Cc1[nH]c2cc(OCc3ccccc3)ccc2c1C(=O)[C@@H]1CSC(c2cccnc2)N1 (stereo partly drawn) [(6-Benzyloxy-2-methyl-1H-indol-3-yl)-((R)-2-pyridin-3-yl-thiazolidin-4-yl)-methanone] | 16
9 | O=C(c1cn(Cc2ccccc2)c2ccccc12)[C@@H]1CSC(c2cccnc2)N1 (stereo partly drawn) [(1-Benzyl-1H-indol-3-yl)-((R)-2-pyridin-3-yl-thiazolidin-4-yl)-methanone] | 49
10 | COc1cc2[nH]cc(C(=O)[C@@H]3CSC(c4cccnc4)N3)c2cc1OC (stereo partly drawn) [(5,6-Dimethoxy-1H-indol-3-yl)-((R)-2-pyridin-3-yl-thiazolidin-4-yl)-methanone] | 87
11 | COc1ccc2c(C(=O)[C@@H]3CSC(c4cccnc4)N3)c[nH]c2c1 (stereo partly drawn) [(6-Methoxy-1H-indol-3-yl)-((R)-2-pyridin-3-yl-thiazolidin-4-yl)-methanone] | 9.5
12 | CCn1cc(C(=O)[C@@H]2CSC(c3cccnc3)N2)c2ccccc21 (stereo partly drawn) [(1-Ethyl-1H-indol-3-yl)-((R)-2-pyridin-3-yl-thiazolidin-4-yl)-methanone] | 5.4
13 | CCOC(=O)Cn1cc(C(=O)[C@@H]2CSC(c3cccnc3)N2)c2ccccc21 (stereo partly drawn) [[3-((R)-2-Pyridin-3-yl-thiazolidine-4-carbonyl)-indol-1-yl]-acetic acid ethyl ester] | 1.2
14 | CN(C(=O)n1cc(C(=O)[C@@H]2CSC(c3cccnc3)N2)c2ccccc21)c1ccccc1 (stereo partly drawn) [3-((R)-2-Pyridin-3-yl-thiazolidine-4-carbonyl)-indole-1-carboxylic acid methyl-phenyl-amide] | 31
15 | CCN(CC)C(=O)n1cc(C(=O)[C@@H]2CSC(c3cccnc3)N2)c2ccccc21 (stereo partly drawn) [3-((R)-2-Pyridin-3-yl-thiazolidine-4-carbonyl)-indole-1-carboxylic acid diethylamide] | 1.4
16 | CC(C)(C)OC(=O)N1C(c2cccnc2)SC[C@H]1C(=O)c1c[nH]c2ccccc12 (stereo partly drawn) [(R)-4-(1H-Indole-3-carbonyl)-2-pyridin-3-yl-thiazolidine-3-carboxylic acid tert-butyl ester] | 9750

Row | SMILES | Ki [nM]
17 | O=C(c1c[nH]c2cccc(OCc3ccccc3)c12)[C@@H]1CSC(c2cccnc2)N1 (stereo partly drawn) [(4-Benzyloxy-1H-indol-3-yl)-((R)-2-pyridin-3-yl-thiazolidin-4-yl)-methanone] | 13
18 | O=C(c1ccccc1)c1ccc2ccn(C(=O)[C@@H]3CSC(c4cccnc4)N3)c2c1 (stereo partly drawn) [(6-Benzoyl-indol-1-yl)-((R)-2-pyridin-3-yl-thiazolidin-4-yl)-methanone] | 95
19 | O=C(Nc1cccc(Cl)c1)c1ccn2c1CSC2c1cccnc1 (configuration not stated) [RP-52770] | 274
20 | O=C(c1cn(C(=O)OCc2ccccc2)c2ccccc12)[C@@H]1CSC(c2cccnc2)N1 (stereo partly drawn) [3-((R)-2-Pyridin-3-yl-thiazolidine-4-carbonyl)-indole-1-carboxylic acid benzyl ester; compound with oxalic acid] | 3
21 | O=C(c1c[nH]c2cc(OCc3ccccc3)ccc12)[C@@H]1CSC(c2cccnc2)N1 (stereo partly drawn) [(6-Benzyloxy-1H-indol-3-yl)-((R)-2-pyridin-3-yl-thiazolidin-4-yl)-methanone] | 1.6
22 | Cc1ccc2c(C(=O)[C@@H]3CSC(c4cccnc4)N3)cn(C(=O)OC(C)(C)C)c2c1 (stereo partly drawn) [6-Methyl-3-((R)-2-pyridin-3-yl-thiazolidine-4-carbonyl)-indole-1-carboxylic acid tert-butyl ester] | 2.6
23 | O=C(c1c[nH]c2cc(OCc3cccnc3)ccc12)[C@@H]1CSC(c2cccnc2)N1 (stereo partly drawn) [[6-(Pyridin-3-ylmethoxy)-1H-indol-3-yl]-((R)-2-pyridin-3-yl-thiazolidin-4-yl)-methanone] | 37
24 | COc1cc2c(C(=O)[C@@H]3CSC(c4cccnc4)N3)cn(C(=O)N(C)C)c2cc1OC (stereo partly drawn) [5,6-Dimethoxy-3-((R)-2-pyridin-3-yl-thiazolidine-4-carbonyl)-indole-1-carboxylic acid dimethylamide] | 10
25 | CC(C)(C)NC(=O)n1cc(C(=O)[C@@H]2CSC(c3cccnc3)N2)c2ccccc21 (stereo partly drawn) [3-((R)-2-Pyridin-3-yl-thiazolidine-4-carbonyl)-indole-1-carboxylic acid tert-butylamide] | 8.8
26 | O=C(c1cn(C(=O)N2CCOCC2)c2ccccc12)[C@@H]1CSC(c2cccnc2)N1 (stereo partly drawn) [Morpholin-4-yl-[3-((R)-2-pyridin-3-yl-thiazolidine-4-carbonyl)-indol-1-yl]-methanone] | 1.5
27 | O=C(O)CCn1cc(C(=O)[C@@H]2CSC(c3cccnc3)N2)c2ccccc21 (stereo partly drawn) [3-[3-((R)-2-Pyridin-3-yl-thiazolidine-4-carbonyl)-indol-1-yl]-propionic acid] | 25
28 | CC(=O)N1C(c2cccnc2)SC[C@H]1C(=O)c1c[nH]c2ccccc12 (stereo partly drawn) [1-[(R)-4-(1H-Indole-3-carbonyl)-2-pyridin-3-yl-thiazolidin-3-yl]-ethanone] | 17800
29 | O=CN1C(c2cccnc2)SC[C@H]1C(=O)c1c[nH]c2ccccc12 (stereo partly drawn) [(R)-4-(1H-Indole-3-carbonyl)-2-pyridin-3-yl-thiazolidine-3-carbaldehyde] | 220
30 | COc1cc(C(=O)c2cccc(NC(=O)[C@@H]3CSC(c4cccnc4)N3)c2)cc(OC)c1OC (stereo partly drawn) [(R)-2-Pyridin-3-yl-thiazolidine-4-carboxylic acid [3-(3,4,5-trimethoxy-benzoyl)-phenyl]-amide] | 1.6
31 | O=C(c1cn(CC(F)(F)F)c2ccccc12)[C@@H]1CSC(c2cccnc2)N1 (stereo partly drawn) [((R)-2-Pyridin-3-yl-thiazolidin-4-yl)-[1-(2,2,2-trifluoro-ethyl)-1H-indol-3-yl]-methanone] | 21
32 | O=C(c1c[nH]c2c(OCc3ccccc3)cccc12)[C@@H]1CSC(c2cccnc2)N1 (stereo partly drawn) [(7-Benzyloxy-1H-indol-3-yl)-((R)-2-pyridin-3-yl-thiazolidin-4-yl)-methanone; TFA] | 1.1
